The results in this text go back to ChEMBL document CHEMBL6103538, “Carbonic anhydrases: Moiety appended derivatives, medicinal and pharmacological implications” (Bioorg Med Chem, 2024).

Assay [1] concerns the target T1, Carbonic anhydrase 1 (Homo sapiens, UniProt P00915). The experiment in a line: Binding affinity to human CA I assessed as inhibition constant.
Assay [2] addresses T2, Carbonic anhydrase 2 (Homo sapiens, UniProt P00918). As to the kind of experiment: Binding affinity to human CA II assessed as inhibition constant.
Assay [3] deals with Carbonic anhydrase 4 (Homo sapiens, UniProt P22748). As to the kind of experiment: Binding affinity to human CA4 assessed as inhibition constant.
Carbonic anhydrase 4, sequence (P22748 whole entry): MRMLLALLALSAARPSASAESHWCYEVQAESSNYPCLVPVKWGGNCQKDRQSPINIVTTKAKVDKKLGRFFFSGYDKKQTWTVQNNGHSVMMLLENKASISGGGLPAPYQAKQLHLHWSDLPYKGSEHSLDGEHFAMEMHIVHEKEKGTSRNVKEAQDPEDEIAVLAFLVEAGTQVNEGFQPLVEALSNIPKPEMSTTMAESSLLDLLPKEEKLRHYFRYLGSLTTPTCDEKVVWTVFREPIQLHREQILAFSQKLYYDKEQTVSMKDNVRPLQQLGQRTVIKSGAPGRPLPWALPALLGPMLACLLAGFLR
In assay [4] the test system is MDA-MB-231. As to the kind of experiment: Anticancer activity against human MDA-MB-231 cells assessed as reduction in cell viability under normoxia condition. The class given is functional, cell-based.
In assay [5] the test system is MCF7. As to the kind of experiment: Anticancer activity against human MCF7 cells assessed as reduction in cell viability under hypoxia condition. Type of assay: functional, cell-based.
Assay [6] relates to MDA-MB-231. As to the kind of experiment: Anticancer activity against human MDA-MB-231 cells assessed as reduction in cell viability under hypoxia condition. The class given is functional, cell-based.
The nature of assay [7]: Inhibition of Hsp70 (unknown origin). Also noted: species or system Homo sapiens.
Assay [8] concerns MCF7. The experiment in a line: Anticancer activity against human MCF7 cells assessed as reduction in cell viability under normoxia condition. Type of assay: functional, cell-based.
Assay [9] addresses T3, Carbonic anhydrase 12 (Homo sapiens, UniProt O43570). As to the kind of experiment: Binding affinity to human CA XII assessed as inhibition constant.
For assay [10], the target named is T4, Carbonic anhydrase 9 (Homo sapiens, UniProt Q16790). As to the kind of experiment: Binding affinity human CA IX assessed as inhibition constant.
Assay [11] deals with MCF7. As to the kind of experiment: Cytotoxicity against human MCF7 cells assessed as reduction in cell viability incubated for 24 hrs by MTT assay. Type of assay: functional, cell-based. To be noted: MCF7, 24 h.
Assay [12] deals with T2, Carbonic anhydrase 2. The experiment in a line: Binding affinity to human Carbonic anhyrase 2 assessed as inhibition constant pre-incubated for 10 mins by stopped-flow instrument based assay.
Assay [13] concerns the target T1, Carbonic anhydrase 1. The experiment in a line: Binding affinity to human Carbonic anhyrase 1 assessed as inhibition constant pre-incubated for 10 mins by stopped-flow instrument based assay.
For assay [14], the target named is T1, Carbonic anhydrase 1. The experiment in a line: Binding affinity to human CA I assessed as inhibition constant by spectrophotometric analysis.
For assay [15], the target named is T2, Carbonic anhydrase 2. As to the kind of experiment: Binding affinity to human CA II assessed as inhibition constant pre-incubated for 15 mins by stopped-flow CO2-hydrase assay method.
The species entered for assay [16] is Homo sapiens. As to the kind of experiment: Selectivity ratio of IC50 for human CA I to IC50 for human CA II.
Assay [17] is filed under the species Homo sapiens. The experiment in a line: Selectivity ratio of IC50 for human CA IX to IC50 for human CA II.
Assay [18] concerns the target Carbonic anhydrase 5B, mitochondrial (Homo sapiens, UniProt Q9Y2D0). The experiment in a line: Binding affinity to human CA VB-catalysed CO2 hydration activity assessed as inhibition constant pre-incubated for 15 mins by stopped-flow instrument method.
Assay [19] has as its system A549. As to the kind of experiment: Antiproliferative activity against human A549 cells assessed as reduction in cell viability by SRB assay. The class given is functional, cell-based.
For assay [20], the system named is MCF7. The experiment in a line: Antiproliferative activity against human MCF7 cells assessed as reduction in cell viability by SRB assay. The class given is functional, cell-based.
The test system of assay [21] is HepG2. The experiment in a line: Antiproliferative activity against human HepG2 cells assessed as reduction in cell viability by SRB assay. The class given is functional, cell-based.
Assay [22] has as its system HT-29. As to the kind of experiment: Cytotoxicity against human HT-29 cells assessed as reduction in cell viability incubated for 24 hrs by MTT assay. To be noted: HT-29, 24 h. The class given is functional, cell-based.
For assay [23], the system named is PC-3. As to the kind of experiment: Cytotoxicity against human PC-3 cells assessed as reduction in cell viability incubated for 24 hrs by MTT assay. Type of assay: functional, cell-based. To be noted: PC-3, 24 h.
Assay [24] concerns HCT-116. The experiment in a line: cells. Type of assay: functional, cell-based. The note with it: Homo sapiens.
Description: Cytotoxicity against human HCT-116 cells
Assay [25] relates to MCF7. As to the kind of experiment: cells. The note with it: Homo sapiens. The class given is functional, cell-based.
Assay [26] addresses T4, Carbonic anhydrase 9. As to the kind of experiment: Binding affinity to human recombinant CA IX assessed as inhibition constant.
The target in assay [27] is T3, Carbonic anhydrase 12. The experiment in a line: Binding affinity to human recombinant CA XII assessed as inhibition constant.
The target of assay [28] is T2, Carbonic anhydrase 2. The experiment in a line: Binding affinity to human CA II assessed as inhibition constant by spectrophotometric analysis.
The target in assay [29] is T2, Carbonic anhydrase 2. The experiment in a line: Inhibition of human Carbonic anhydrase 2.
The target in assay [30] is T4, Carbonic anhydrase 9. As to the kind of experiment: Inhibition of human Carbonic anhydrase IX.
Assay [31] concerns MCF7. The experiment in a line: Anticancer activity against human MCF7 cells assessed as reduction in cell viability measured after 72 hrs by MTT assay. The class given is functional, cell-based. The note with it: MCF7, 72 h.
Assay [32] deals with MDA-MB-231. The experiment in a line: Anticancer activity against human MDA-MB-231 cells assessed as reduction in cell viability measured after 72 hrs by MTT assay. The class given is functional, cell-based. To be noted: MDA-MB-231, 72 h.
Assay [33] deals with HepG2. The experiment in a line: Anticancer activity against human HepG2 cells assessed as reduction in cell viability measured after 72 hrs by MTT assay. To be noted: HepG2, 72 h. The class given is functional, cell-based.
Assay [34] addresses T1, Carbonic anhydrase 1. The experiment in a line: Inhibition of human Carbonic anhydrase 1.

T3 sequence (O43570 whole entry): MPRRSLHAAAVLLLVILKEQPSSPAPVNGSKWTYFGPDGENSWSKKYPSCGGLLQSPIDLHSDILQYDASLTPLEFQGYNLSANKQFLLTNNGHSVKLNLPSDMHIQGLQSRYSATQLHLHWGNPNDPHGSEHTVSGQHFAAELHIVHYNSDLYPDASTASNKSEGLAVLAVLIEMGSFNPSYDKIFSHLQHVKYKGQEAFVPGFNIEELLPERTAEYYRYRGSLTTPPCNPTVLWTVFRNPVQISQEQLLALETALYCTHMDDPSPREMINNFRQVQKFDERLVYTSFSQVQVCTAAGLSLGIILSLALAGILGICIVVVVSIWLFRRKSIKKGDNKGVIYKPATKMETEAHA
T1 sequence (P00915 whole entry): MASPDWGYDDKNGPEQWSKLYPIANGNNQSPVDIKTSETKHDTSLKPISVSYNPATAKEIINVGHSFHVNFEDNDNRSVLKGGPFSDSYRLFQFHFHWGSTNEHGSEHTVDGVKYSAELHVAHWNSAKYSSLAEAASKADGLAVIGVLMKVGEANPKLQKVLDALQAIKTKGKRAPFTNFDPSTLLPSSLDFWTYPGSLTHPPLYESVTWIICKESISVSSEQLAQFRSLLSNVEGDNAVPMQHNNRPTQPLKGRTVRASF
Carbonic anhydrase 5B, mitochondrial, sequence (Q9Y2D0 whole entry): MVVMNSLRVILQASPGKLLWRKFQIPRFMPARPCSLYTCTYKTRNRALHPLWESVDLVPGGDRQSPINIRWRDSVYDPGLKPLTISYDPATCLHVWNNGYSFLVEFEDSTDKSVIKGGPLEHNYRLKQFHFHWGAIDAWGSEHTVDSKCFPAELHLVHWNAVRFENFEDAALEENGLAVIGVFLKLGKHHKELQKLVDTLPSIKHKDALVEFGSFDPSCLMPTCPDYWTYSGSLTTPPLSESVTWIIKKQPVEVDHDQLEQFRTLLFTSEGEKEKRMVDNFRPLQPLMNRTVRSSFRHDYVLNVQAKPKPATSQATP

As for `NS(=O)(=O)c1ccc(C(=O)Nc2ncc(C(=O)NCCN3CCOCC3)s2)cc1`, the Ki in [1] came out at 0.0459 µM; in assay [2] it was 0.00651 µM.

`COc1ccc(-c2cs/c(=N\C(=O)c3c(F)cccc3F)n2C2=C(N)C(=O)c3ccccc3C2=O)cc1`: in assay [2], the Ki amounted to 0.0553 µM.

As to `Cc1c(/C=N/Nc2nc(-c3ccc(F)cc3)cs2)nnn1-c1cccc(S(N)(=O)=O)c1`, the Ki in assay [3] is 0.088 µM.

Regarding `COc1cccc(NC(=O)Nc2ccc(S(N)(=O)=O)cc2)c1`, the IC50 in [4] is 6.3 µM; in [5], 14.4 µM; in [6] it was 12.5 µM; in [7], 19.4 µM; in [8], 4.6 µM. The Ki in [9] was determined as 0.0091 µM; in assay [10], 0.0041 µM.

Take `COc1cccc(NC(=O)Nc2cccc(OC)c2)c1`: the concentration for half-maximal inhibition (IC50) in assay [4] was 6.3 µM; in assay [5] it was 1.1 µM; in assay [6], 12.4 µM; in assay [7], 15.3 µM; in [8] it was 3.7 µM.

Consider `Cc1ccc(C(C)C)cc1OCc1cn(CCCCCCOc2ccc3ccc(=O)oc3c2)nn1`, for which the IC50 in assay [11] stood at 2.48 µM.

With `COc1cccc(C(=O)/C=C/c2cn(Cc3cn(-c4ccc(S(N)(=O)=O)cc4)nn3)c3ccccc23)c1`, the Ki was found to be 0.716 µM in assay [12] and 0.0383 µM in [13].

As to `O=C(NC(=S)Nc1ccc(S(=O)(=O)Nc2nccs2)cc1)c1ccc(F)cc1`, the Ki in assay [14] came to 0.014 µM.

As to `O=C(NC(=S)Nc1ccc(S(=O)(=O)Nc2nccs2)cc1)c1ccccc1`, in assay [14], the Ki came out at 0.0207 µM.

With `NS(=O)(=O)c1ccc(-c2ccc(-c3cnc(C(=O)N4CCNCC4)o3)s2)cc1`, in assay [15], the inhibitory constant (Ki) is 0.004 µM.

With `Cn1c(N)c(NCc2ccc(Br)cc2O)c(=O)n(C)c1=O`, the Ki in [1] is 0.0361 µM.

For `Cc1nn(-c2ccc(S(N)(=O)=O)cc2)c2c1C(c1c(F)cccc1F)C(C#N)=C(N)O2` (stereo unspecified), in assay [10], the Ki was 0.019 µM. The Ratio IC50 in assay [16] stood at 14.3; in [17] it was 7.42.

Consider `Cc1ccc(C)c(NC(=O)SOS(N)(=O)=O)c1`, for which the Ki in assay [18] came to 0.516 µM.

In the case of `NC1=C(n2c(-c3ccc(Cl)cc3)cs/c2=N\C(=O)c2c(F)cccc2F)C(=O)c2ccccc2C1=O`, the Ki in assay [1] was 0.0679 µM.

On to `NS(=O)(=O)c1ccc(C(=O)Nc2nc(C(=O)OCCCN3CCOCC3)cs2)cc1`, for which the values for the Ki in assay [1] and in assay [2] were 0.0273 µM and 0.00692 µM, respectively.

Regarding `Cc1ccc(-c2c(/C=N/NC(=O)C34CC5CC(CC(C5)C3)C4)n[nH]c2-c2ccccc2)cc1`, the IC50 in assay [19], in [20] and in assay [21] was below 5 µM throughout.

Turning to `CC(=O)C(C)/C(C)=N/NC(=O)C12CC3CC(CC(C3)C1)C2` (stereo unspecified), the IC50 in assay [19], in assay [20] and in [21] was below 5 µM throughout.

Regarding `Cc1ccc(C(C)C)c(OCc2cn(CCCCOc3ccc4ccc(=O)oc4c3)nn2)c1`, the IC50 in [22] is 12.1 µM; in assay [23] it was 9.4 µM.

Regarding `COc1ccc(C2C(C#N)=C(N)Oc3c2c(C)nn3-c2ccc(S(N)(=O)=O)cc2)cc1O` (stereo unspecified), the IC50 in [24] worked out at 4.62 µM; in assay [25] it was 1.88 µM. Further, the Ki in assay [10] was determined as 0.012 µM.

`Nc1nn(C(=O)C23CC4CC(CC(C4)C2)C3)c(N)c1/N=N/c1ccccc1`: the IC50 in assay [20] and in assay [21] was below 5 µM in each case. Further, the Ki came out at 0.085 µM in assay [26] and 0.14 µM in [27].

With `Cc1ccnc(NS(=O)(=O)c2ccc(NC(=S)NC(=O)c3ccc(F)cc3)cc2)n1`, the Ki in assay [28] is 0.00815 µM.

With `COc1ccccc1NC(=O)SOS(N)(=O)=O`, in [18], the Ki amounted to 0.345 µM.

As to `Cn1c(N)c(NCc2cc(I)ccc2O)c(=O)n(C)c1=O`, the Ki in [2] stood at 0.0163 µM.

In the case of `NS(=O)(=O)c1ccc(CCNC(=O)c2ccc3c(c2)C(=O)c2ccccc2C3=O)cc1`, the IC50 in assay [29] was 0.0212 µM.

As for `Cc1sc2ncnc(Nc3ccc(S(N)(=O)=O)cc3)c2c1C`, the Ki in assay [10] was found to be 0.0161 µM.

Turning to `COC(=O)[C@H]1O[C@@H](NC(=O)c2ccc(S(N)(=O)=O)cc2)[C@H](O)[C@@H](O)[C@@H]1O`, the Ratio IC50 in [16] was found to be 44.4.

Take `CCOc1ccccc1NC(=O)SOS(N)(=O)=O`: the Ki in assay [18] came out at 0.271 µM.

With `NS(=O)(=O)c1ccc(C(=O)Nc2nc(C(=O)OCCN3CCOCC3)cs2)cc1`, the Ki in assay [1] came to 0.0498 µM; in assay [2] it was 0.00597 µM.

Turning to `CCOC(=O)c1sc2ncnc(Nc3ccc(S(N)(=O)=O)cc3)c2c1C`, the Ki was 0.0086 µM in assay [2], 0.019 µM in assay [9] and 0.0138 µM in [10].

In [30], `Clc1ccccc1-c1nc2cc(-c3ccc4[nH]c(-c5ccccc5Cl)nc4c3)ccc2[nH]1` displayed an IC50 of 5.23 µM.

On to `CCCCCCCCn1c2ccccc2c2cc(/N=C/c3cccc(O)c3O)ccc21`, for which half-maximal inhibition in assay [29] (IC50) was put at 21.8 µM.

With `CCOC(=O)c1sc(NC(=O)c2ccc(S(N)(=O)=O)cc2)nc1C(F)(F)F`, the Ki amounted to 0.0385 µM in assay [1] and 0.00736 µM in assay [2].

Regarding `Cc1nn(-c2ccc(S(N)(=O)=O)cc2)c2c1C(c1ccc(F)cc1F)C(C#N)=C(N)O2` (stereo unspecified), the IC50 in assay [24] came to 1.3 µM; in [25] it was 1.69 µM. Further, the Ki in [10] is 0.019 µM.

As for `NS(=O)(=O)c1ccc(NC(=S)NC(=O)c2ccc3c(c2)C(=O)c2ccccc2C3=O)cc1`, the figures for the IC50 in assay [31], in [32] and in assay [33] were 69.4 µM, 46.2 µM and 28.1 µM, respectively.

As for `Cc1ccc(NC(=O)SOS(N)(=O)=O)cc1`, the Ki in [18] was determined as 0.462 µM.

Regarding `N=C(N)NS(=O)(=O)c1ccc(/N=N/Nc2c(F)c(F)c(F)c(F)c2F)cc1`, in assay [2], the Ki amounted to 0.00816 µM.

Consider `Cc1ccc(C(=O)/C=C/c2cn(Cc3cn(-c4ccc(S(N)(=O)=O)cc4)nn3)c3ccccc23)cc1`, for which the Ki came out at 0.0362 µM in assay [12] and 0.0504 µM in [13].

Turning to `C/C(=N\Nc1nc(-c2ccc(C)cc2)cs1)c1nnn(-c2ccc(S(N)(=O)=O)cc2)c1C`, the Ki in assay [1] came to 0.0406 µM.

Consider `NS(=O)(=O)c1ccc(-n2cc(Cn3cc(/C=C/C(=O)c4ccc(Br)cc4)c4ccccc43)nn2)cc1`, for which the Ki was found to be 0.468 µM in [12] and 0.0188 µM in [13].

On to `CC(=O)c1ccc(N/N=N/c2ccc(S(=O)(=O)NC(=N)N)cc2)cc1`, for which the Ki in assay [1] was 0.00644 µM.

In the case of `CCCCCCCCn1c2ccccc2c2cc(/N=C/c3ccc(O)c(O)c3)ccc21`, in assay [34], the IC50 stood at 32.1 µM.
